US10988478B1, “Pyrazolo[1,5a]pyrimidine derivatives as IRAK4 modulators” (Genentech, Inc., priority 2015, dated 2021)
Blank lines part the entries; values can stand above or below the compound they belong to.

Target: human IRAK4 (Homo sapiens (Human), UniProt Q9NWZ3)
Assay: IRAK4 kinase inhibition, Transcreener fluorescence polarization ADP assay
Format: biochemical
Conditions: recombinant full-length His6-IRAK4; 125 uM ATP; 90 min; Ki computed using ATP Km 642 uM
Method: Compounds were assayed for inhibition of human IRAK4 and IRAK1 catalytic activity using recombinant enzyme produced from insect cells. Full-length IRAK4 protein, carrying an N-terminal His6-Tag, was obtained from Life Technologies (Carlsbad, Calif., USA). The IRAK1 construct was produced internally and was comprised of IRAK1 residues Arg194 to Ser712, preceded by an NH2-terminal His6 tag and the coding sequence for glutathione-S-transferase.

human IRAK4, sequence (Q9NWZ3 whole entry): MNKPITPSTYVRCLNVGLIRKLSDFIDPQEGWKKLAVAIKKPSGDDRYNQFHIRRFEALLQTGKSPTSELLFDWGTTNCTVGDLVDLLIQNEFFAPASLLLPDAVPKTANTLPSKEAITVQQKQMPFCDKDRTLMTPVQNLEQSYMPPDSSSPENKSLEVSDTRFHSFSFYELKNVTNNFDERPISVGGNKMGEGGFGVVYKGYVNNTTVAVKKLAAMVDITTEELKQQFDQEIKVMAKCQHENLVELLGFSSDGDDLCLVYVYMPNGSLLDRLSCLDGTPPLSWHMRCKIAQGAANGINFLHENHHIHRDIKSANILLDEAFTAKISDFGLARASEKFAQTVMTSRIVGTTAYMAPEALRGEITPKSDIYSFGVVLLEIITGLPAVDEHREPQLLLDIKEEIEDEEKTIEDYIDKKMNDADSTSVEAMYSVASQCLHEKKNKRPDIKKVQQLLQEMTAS

Compound: N-(2,2-dimethyl-6-(4-(2-oxo-2-(thiazol-2-ylamino)ethyl)piperazin-1-yl)-2,3-dihydrobenzofuran-5-yl)pyrazolo[1,5-a]pyridine-3-carboxamide [Example 441]
Ki: 6 nM

Compound: N-[2,2-Dimethyl-6-[(5-methyl-1H-pyrazol-3-yl)methoxy]-3H-benzofuran-5-yl]pyrazolo[1,5-a]pyrimidine-3-carboxamide [Example 543]
Ki: 140 nM

Compound: N-[(2R)-6-[4-(2,2-difluoroethyl)piperazin-1-yl]-2-(hydroxymethyl)-2-methyl-3H-benzofuran-5-yl]-6-fluoro-pyrazolo[1,5-a]pyrimidine-3-carboxamide [Example 494]
Ki: 40 nM

Other lines, results leading:

Ki: 3.1 nM
Compound: CC1(C#N)CCN(c2cc3c(cc2NC(=O)c2cnn4cccnc24)CN(C[C@@H](F)C(C)(C)O)C3=O)CC1 [Example 569, N-[6-(4-Cyano-4-methyl-1-piperidyl)-2-[(2R)-2-fluoro-3-hydroxy-3-methyl-butyl]-1-oxo-isoindolin-5-yl]pyrazolo[1,5-a]pyrimidine-3-carboxamide]

Ki: 0.63 nM
Compound: CN(C)c1cc2c(cc1NC(=O)c1cnn3cccnc13)CN(C[C@@H](F)C(C)(C)O)C2=O [Example 570, N-[6-(dimethylamino)-2-[(2R)-2-fluoro-3-hydroxy-3-methyl-butyl]-1-oxo-isoindolin-5-yl]pyrazolo[1,5-a]pyrimidine-3-carboxamide]

Ki: 17 nM
Compound: N-[(2S)-6-[4-(2,2-difluoroethyl)piperazin-1-yl]-2-(hydroxymethyl)-2-methyl-3H-benzofuran-5-yl]-6-fluoro-pyrazolo[1,5-a]pyrimidine-3-carboxamide [Example 495]
